Results from patent US11492335B2, “Aryl or heteroaryl triazolone derivatives or salts thereof, or pharmaceutical compositions comprising the same” (YUHAN CORPORATION, priority 2018, dated 2022).
Where a name gives a salt, the structure may show the parent alone.

Key:
Assay type in all cases: biochemical
[1] = target: T1, recombinant human DAO (diamine oxidase) (Homo sapiens, UniProt P19801); assay: Activity on recombinant human DAO, Amplex Red method, 1 mM putrescine substrate; details: recombinant human DAO, 1 mM putrescine, * = between 10 and 100 nM, ** = between 300 and 1000 nM; for IC50: read-out: Inhibitory Activity (IC50, nM) DAO
T1 construct: purchased R&D systems
T1 sequence (P19801 20-751): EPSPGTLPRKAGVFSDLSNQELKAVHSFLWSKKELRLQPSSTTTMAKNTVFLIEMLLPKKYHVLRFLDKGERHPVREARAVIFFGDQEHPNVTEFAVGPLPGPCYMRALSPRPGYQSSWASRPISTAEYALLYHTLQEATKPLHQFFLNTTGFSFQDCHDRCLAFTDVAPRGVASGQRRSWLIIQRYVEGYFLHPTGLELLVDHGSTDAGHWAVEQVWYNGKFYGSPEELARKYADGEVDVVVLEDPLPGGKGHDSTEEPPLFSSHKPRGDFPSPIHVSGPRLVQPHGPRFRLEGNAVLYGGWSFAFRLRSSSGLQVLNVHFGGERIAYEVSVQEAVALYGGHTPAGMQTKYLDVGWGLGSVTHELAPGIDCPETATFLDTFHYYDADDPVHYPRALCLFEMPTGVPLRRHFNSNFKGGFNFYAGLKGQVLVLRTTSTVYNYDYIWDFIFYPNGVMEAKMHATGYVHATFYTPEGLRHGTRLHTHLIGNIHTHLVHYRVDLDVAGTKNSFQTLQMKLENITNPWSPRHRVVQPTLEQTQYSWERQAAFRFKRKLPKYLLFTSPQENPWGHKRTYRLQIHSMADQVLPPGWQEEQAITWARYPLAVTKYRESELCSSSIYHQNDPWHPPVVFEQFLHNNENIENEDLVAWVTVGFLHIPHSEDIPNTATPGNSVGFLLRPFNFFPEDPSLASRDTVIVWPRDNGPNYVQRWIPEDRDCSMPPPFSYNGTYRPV
Protocol: (§1) The compounds according to the present technology were evaluated in terms of activity on recombinant human VAP-1 (R&D systems) by measuring the level of hydrogen peroxide in horseradish peroxidase (HRP)-coupled reaction using Amplex Red Hydrogen Peroxide Assay Kit (Molecular Probes, Invitrogen, USA). The experiment was carried out at room temperature using benzylamine as a substrate. In the HRP-coupled reaction, hydrogen peroxide oxidation of 10-acetyl-3,7-dihydroxyphenoxazine (Amplex Red reagent) produces resorufin, which is a highly fluorescent compound. Briefly, the test compound was dissolved in dimethyl sulfoxide (DMSO) at a concentration of 20 mM. The dose-response assessment was made by 1:3 serial dilution in DMSO, thereby creating an 8 point curve. The concentration of the upper part was controlled according to the efficacy of the compounds, followed by dilution with a reaction buffer solution to obtain a final DMSO concentration less than 1%. To each well of a 96 black well plate, human VAP-1 purified in 50 mM sodium phosphate buffer solution (pH7.4) was added. The test compounds dissolved in DMSO were incubated with the human VAP-1 enzymes at 37° C. for 30 minutes. After 30-minute incubation, each well is added with a reaction mixture containing 200 uM Amplex Red reagent prepared from 50 mM sodium phosphate buffer solution (pH 7.4), 1 mM benzylamine, and 1 U/mL HRP. Fluorescence intensity was measured at several time points during 1-2 hours using a microplate reader (Flexstation3, Molecular Devices) under the wavelength condition exciting at 544 nm and reading the emission at 590 nm. The inhibitory effect of the compounds was measured as a decrease (%) in the signal rate as compared to the control group without any inhibitor (only diluted DMSO). Data was fixed to a logistic model with four variables and IC50 value was calculated using GraphPad Prism program.
(§2) In addition, the compounds according to the present technology were evaluated in terms of activity on a recombinant human MAO-A (monoamine oxidase-A, Sigma-Aldrich) and a recombinant human MAO-B (monoamine oxidase-B, Sigma-Aldrich) by using as substrates, 0.5 mM tyramine and 1 mM benzylamine, respectively, with a method similar to the activity evaluation method for recombinant human VAP-1. The compounds according to the present technology were also evaluated in terms of activity on a recombinant human DAO (diamine oxidase, R&D systems) by using as a substrate 1 mM putrescine with a method similar to the activity evaluation method for recombinant human VAP-1.

[2] = target: T2, recombinant human MAO-B (monoamine oxidase-B) (Homo sapiens, UniProt P27338); assay: Activity on recombinant human MAO-B, Amplex Red method, 1 mM benzylamine substrate; details: 1 mM benzylamine
T2 construct: purchased Sigma-Aldrich
T2 sequence (P27338 1-520): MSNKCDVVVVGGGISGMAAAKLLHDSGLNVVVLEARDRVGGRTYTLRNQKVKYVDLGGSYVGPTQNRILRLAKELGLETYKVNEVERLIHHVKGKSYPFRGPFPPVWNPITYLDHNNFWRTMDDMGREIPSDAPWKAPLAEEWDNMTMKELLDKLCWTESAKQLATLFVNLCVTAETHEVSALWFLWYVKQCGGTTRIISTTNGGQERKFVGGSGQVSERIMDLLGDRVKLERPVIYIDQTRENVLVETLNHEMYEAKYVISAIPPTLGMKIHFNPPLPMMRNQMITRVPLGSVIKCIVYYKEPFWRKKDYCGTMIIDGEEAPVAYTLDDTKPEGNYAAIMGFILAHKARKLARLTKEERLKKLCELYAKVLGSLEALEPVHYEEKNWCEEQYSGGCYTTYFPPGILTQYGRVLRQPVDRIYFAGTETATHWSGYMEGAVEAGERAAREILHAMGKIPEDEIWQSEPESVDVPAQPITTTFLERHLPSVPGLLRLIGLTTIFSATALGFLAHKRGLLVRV
Protocol: as §1, §2

recombinant human VAP-1 = target: T3, recombinant human VAP-1 (Homo sapiens, UniProt Q16853); assay: Activity on recombinant human VAP-1, Amplex Red HRP-coupled hydrogen peroxide assay, benzylamine substrate; details: recombinant human VAP-1, benzylamine substrate, 30 min preincubation at 37° C.; read-out: Inhibitory Activity (IC50, nM) human VAP-1
T3 construct: purchased R&D systems
T3 sequence (Q16853 1-763): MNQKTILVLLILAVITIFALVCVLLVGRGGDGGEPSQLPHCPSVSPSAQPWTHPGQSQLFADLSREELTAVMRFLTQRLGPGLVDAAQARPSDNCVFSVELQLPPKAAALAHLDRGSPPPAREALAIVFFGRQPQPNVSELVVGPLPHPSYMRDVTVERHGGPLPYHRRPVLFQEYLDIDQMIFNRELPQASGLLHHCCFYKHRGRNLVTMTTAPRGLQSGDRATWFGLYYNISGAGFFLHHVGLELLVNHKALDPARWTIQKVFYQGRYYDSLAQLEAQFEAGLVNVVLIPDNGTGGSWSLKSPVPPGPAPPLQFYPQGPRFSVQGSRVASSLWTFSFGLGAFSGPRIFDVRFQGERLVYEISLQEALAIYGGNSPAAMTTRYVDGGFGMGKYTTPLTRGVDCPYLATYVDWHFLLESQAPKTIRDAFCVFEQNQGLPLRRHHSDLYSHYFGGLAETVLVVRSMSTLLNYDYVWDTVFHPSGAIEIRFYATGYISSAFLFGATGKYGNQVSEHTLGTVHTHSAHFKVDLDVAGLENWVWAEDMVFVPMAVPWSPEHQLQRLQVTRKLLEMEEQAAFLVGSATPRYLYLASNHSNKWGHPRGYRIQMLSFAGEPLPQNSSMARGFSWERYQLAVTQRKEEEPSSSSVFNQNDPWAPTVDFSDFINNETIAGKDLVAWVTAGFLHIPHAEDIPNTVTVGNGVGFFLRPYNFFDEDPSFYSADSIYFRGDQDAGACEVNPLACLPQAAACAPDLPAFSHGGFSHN
Protocol: as §1

SMILES	IC50 [1] [nM]	IC50 ([2]; read-out: Inhibitory Activity (IC50, nM) MAO-B) [nM]	IC50 (recombinant human VAP-1) [nM]	Inhibitory Activity (IC50, nM) DAO [1]	Inhibitory Activity (IC50, nM) MAO-B [2]
NC/C(=C/F)Cn1ncn(-c2cc(F)c(Br)c(F)c2)c1=O [Example 19, 2-[(2Z)-2-(aminomethyl)-3-fluoroprop-2-en-1-yl]-4-(4-bromo-3,5-difluorophenyl)-2,4-dihydro-3H-1,2,4-triazol-3-one]	13	4.4	3.3	–	–
Cc1c(-c2ccc3c(c2)OCO3)cccc1-n1cnn(C/C(=C/F)CN)c1=O [Example 111, 2-[(2E)-2-(aminomethyl)-3-fluoroprop-2-en-1-yl]-4-[3-(1,3-benzodioxol-5-yl)-2-methylphenyl]-2,4-dihydro-3H-1,2,4-triazol-3-one]	–	–	2.8	no inhibitory	no inhibitory
Cc1c(-c2ccc(N3CCOCC3)nc2)cccc1-n1cnn(C/C(=C/F)CN)c1=O [Example 110, 2-[(2E)-2-(aminomethyl)-3-fluoroprop-2-en-1-yl]-4-{2-methyl-3-[6-(morpholin-4-yl)pyridin-3-yl]phenyl}-2,4-dihydro-3H-1,2,4-triazol-3-one]	–	–	4.2	no inhibitory	no inhibitory
Cc1cc(Br)ncc1-n1cnn(C/C(=C/F)CN)c1=O [Example 28, 2-[(2E)-2-(aminomethyl)-3-fluoroprop-2-en-1-yl]-4-(6-bromo-4-methylpyridin-3-yl)-2,4-dihydro-3H-1,2,4-triazol-3-one hydrochloride]	1100	–	45	–	–
Cc1c(-c2ccc3nonc3c2)cccc1-n1cnn(C/C(=C/F)CN)c1=O [Example 113, 2-[(2E)-2-(aminomethyl)-3-fluoroprop-2-en-1-yl]-4-[3-(2,1,3-benzooxadiazol-5-yl)-2-methylphenyl]-2,4-dihydro-3H-1,2,4-triazol-3-one]	< 1000	–	2.3	–	–
CC(=O)Nc1nc2cc(-c3cc(C)c(-n4cnn(C/C(=C/F)CN)c4=O)cn3)ccc2s1 [Example 128, N-[5-(5-{1-[(2E)-2-(aminomethyl)-3-fluoroprop-2-en-1-yl]-5-oxo-1,5-dihydro-4H-1,2,4-triazol-4-yl}-4-methylpyridin-2-yl)-1,3-benzothiazol-2-yl]acetamide]	< 100	–	0.82	–	–
Cc1ncc(-c2cccc(-n3cnn(C/C(=C/F)CN)c3=O)c2)cn1 [Example 91, 2-[(2E)-2-(aminomethyl)-3-fluoroprop-2-en-1-yl]-4-[3-(2-methylpyrimidin-5-yl)phenyl]-2,4-dihydro-3H-1,2,4-triazol-3-one hydrochloride]	13	–	1.5	–	–

Continued by falling IC50 (recombinant human VAP-1), values first:

IC50 [1] [nM]	IC50 ([2]; read-out: Inhibitory Activity (IC50, nM) MAO-B) [nM]	IC50 (recombinant human VAP-1) [nM]	Inhibitory Activity (IC50, nM) DAO [1]	Inhibitory Activity (IC50, nM) MAO-B [2]	SMILES
1200	–	2.8	–	–	COc1cc(N2CCOCC2)c(Br)cc1-n1cnn(C/C(=C/F)CN)c1=O [Example 47, 2-[(2E)-2-(aminomethyl)-3-fluoroprop-2-en-1-yl]-4-[5-bromo-2-methoxy-4-(morpholin-4-yl)phenyl]-2,4-dihydro-3H-1,2,4-triazol-3-one hydrochloride]
–	–	2.5	no inhibitory	no inhibitory	Cc1c(-c2ccc3c(c2)OCCO3)cccc1-n1cnn(C/C(=C/F)CN)c1=O [Example 112, 2-[(2E)-2-(aminomethyl)-3-fluoroprop-2-en-1-yl]-4-[3-(2,3-dihydro-1,4-benzodioxin-6-yl)-2-methylphenyl]-2,4-dihydro-3H-1,2,4-triazol-3-one]
< 100	–	0.94	–	–	Cc1cc(-c2ccc(S(C)(=O)=O)cc2)ncc1-n1cnn(C/C(=C/F)CN)c1=O [Example 119, 2-[(2E)-2-(aminomethyl)-3-fluoroprop-2-en-1-yl]-4-{4-methyl-6-[4-(methylsulfonyl)phenyl]pyridin-3-yl}-2,4-dihydro-3H-1,2,4-triazol-3-one]
